# Key:
# [1] = target: T1, Peptide deformylase (Mycobacterium tuberculosis, UniProt P9WIJ3); test: Inhibition of Mycobacterium tuberculosis peptide deformylase expressed in Escherichia coli M15(pREp4) by microplate assay
# T1 sequence (P9WIJ3 whole entry): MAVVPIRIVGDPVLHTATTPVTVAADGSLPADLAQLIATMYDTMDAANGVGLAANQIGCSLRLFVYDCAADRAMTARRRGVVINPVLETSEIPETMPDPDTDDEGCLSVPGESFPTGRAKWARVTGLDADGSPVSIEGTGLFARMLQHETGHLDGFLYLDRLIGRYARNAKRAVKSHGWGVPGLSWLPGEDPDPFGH
# [2] = tested on: Mycobacterium tuberculosis; test: Antitubercular activity against Mycobacterium tuberculosis H37Rv after 14 days by turbidimetric assay; assay type: functional; settings: 336 h
Structure (SMILES),IC50 [1],MIC [2]
CCCC[C@H](CN(O)C=O)C(=O)N1CCC[C@H]1c1nc2ccccc2[nH]1,10 nM,0.1 µg/mL
O=CN(O)C[C@@H](CC1CC1)C(=O)N1CCC[C@H]1c1nc2ccccc2o1,21 nM,0.2 µg/mL
CCCC[C@H](CC(=O)O)C(=O)N1CCC[C@H]1c1nc2ccccc2o1,803 nM,
CCCC[C@H](C(=O)NO)C(=O)N1CCC[C@H]1c1nc2ccccc2[nH]1,18 nM,
CCCC[C@H](CN(O)C=O)C(=O)N1CCC[C@H]1C(=O)Nc1ccccn1,,0.2 µg/mL
CCCCC[C@H](CN(O)C=O)C(=O)N1CCC[C@H]1c1nc2ccccc2o1,13 nM,
CCC[C@H](CN(O)C=O)C(=O)N1CCC[C@H]1c1nc2ccccc2o1,28 nM,
O=CN(O)C[C@@H](Cc1ccccc1)C(=O)N1CCC[C@H]1c1nc2ccccc2[nH]1,68 nM,
CCC[C@H](CN(O)C=O)C(=O)N1CCC[C@H]1c1nc2ccccc2[nH]1,24 nM,
CCCCC[C@H](CN(O)C=O)C(=O)N1CCC[C@H]1c1nc2ccccc2[nH]1,15 nM,
CCCC[C@H](CC(=O)O)C(=O)N1CCC[C@H]1c1nc2ccccc2[nH]1,202 nM,
CCCC[C@H](CN(O)C=O)C(=O)N1CCC[C@H]1c1nc2ccccc2o1,,0.15 µg/mL
CCCC[C@H](C(=O)NO)C(=O)N1CCC[C@H]1c1nc2ccccc2o1,49 nM,
O=CN(O)C[C@@H](Cc1ccccc1)C(=O)N1CCC[C@H]1c1nc2ccccc2o1,161 nM,
O=CN(O)C[C@@H](CC1CC1)C(=O)N1CCC[C@H]1c1nc2ccccc2[nH]1,8 nM,0.05 µg/mL
COc1c(N2CCNC(C)C2)c(F)cc2c(=O)c(C(=O)O)cn(C3CC3)c12 (centres undefined) [GATIFLOXACIN],,0.07 µg/mL

# Source: ChEMBL document CHEMBL1139242, “Peptide deformylase inhibitors of Mycobacterium tuberculosis: synthesis, structural investigations, and biological results” (Bioorg Med Chem Lett, 2008)
